Where a SMILES comes first, the peptide text is derived from it. [ ]: non-standard residue; d: D form. The star is where a group is joined. ξ: configuration not given here. X1 = COc1cccc2c1C(=O)c1c(O)c3c(c(O)c1C2=O)C[C@](O)(C(=O)CO)C[C@H]3O[C@@H]1C[C@@H](N*)[C@H](O)[C@@H](C)O1; X2 = COc1cccc2c1C(=O)c1c(O)c3c(c(O)c1C2=O)C[C@@](O)(C(=O)CO)C[C@@H]3O[C@H]1C[C@H](N*)[C@@H](O)[C@H](C)O1; Dnp = O=[N+]([O-])c1ccc(*)c([N+](=O)[O-])c1; ξhPhe = NC(CCc1ccccc1)C(=O)O; ξCha = NC(CC1CCCCC1)C(=O)O; Cbz = O=C(OCc1ccccc1)*; Bn = c1ccc(C*)cc1
What was measured:
Kidney = experiment: Prodrug activation in Balb/c immunodeficient nude mouse xenografted with human HT1080 cells assessed as half life for prodrug in kidney after 60 mins by LC-MS analysis; assay type: tissue-based; conditions: 1 h
[1] = Retention time of compound by RP-HPLC analysis
Liver = experiment: Prodrug activation in Balb/c immunodeficient nude mouse xenografted with human HT1080 cells assessed as half life for prodrug in liver after 60 mins by LC-MS analysis; assay type: tissue-based; conditions: 1 h
[2] = target: T1, 72 kDa type IV collagenase (Homo sapiens, UniProt P08253); experiment: Prodrug activation assessed as recombinant human MMP2-mediated Leu-doxorubicin formation at 10 uM after 12 hrs by LC-MS analysis
T1 sequence (P08253 whole entry): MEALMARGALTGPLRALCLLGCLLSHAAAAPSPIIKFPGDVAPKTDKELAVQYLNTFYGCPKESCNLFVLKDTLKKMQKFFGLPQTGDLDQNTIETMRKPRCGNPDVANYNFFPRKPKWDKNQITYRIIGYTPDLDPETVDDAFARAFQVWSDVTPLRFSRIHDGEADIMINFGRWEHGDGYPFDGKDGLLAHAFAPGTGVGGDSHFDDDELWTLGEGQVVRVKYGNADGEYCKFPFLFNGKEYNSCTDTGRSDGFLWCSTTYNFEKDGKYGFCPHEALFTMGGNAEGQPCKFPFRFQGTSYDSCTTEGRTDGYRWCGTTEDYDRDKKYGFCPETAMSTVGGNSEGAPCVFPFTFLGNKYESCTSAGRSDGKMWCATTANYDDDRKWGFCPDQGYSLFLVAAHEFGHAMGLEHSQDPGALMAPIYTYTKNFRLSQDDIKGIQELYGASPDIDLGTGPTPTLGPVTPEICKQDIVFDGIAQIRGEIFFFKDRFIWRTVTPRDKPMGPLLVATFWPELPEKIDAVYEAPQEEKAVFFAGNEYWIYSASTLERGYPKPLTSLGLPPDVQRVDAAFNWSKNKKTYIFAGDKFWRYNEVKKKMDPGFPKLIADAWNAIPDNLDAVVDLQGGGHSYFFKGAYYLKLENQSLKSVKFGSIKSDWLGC

[3] = Prodrug activation in Balb/c immunodeficient nude mouse xenografted with human HT1080 cells assessed as half life for prodrug in tumor homogenates after 60 mins by LC-MS analysis; assay type: tissue-based, Neoplasm; conditions: tissue homogenate, 1 h
U-87 MG [4] = experiment: Cytotoxicity against human U87MG cells assessed as reduction in cell survival after 96 hrs by MTT assay; assay type: functional, cell-based, U-87MG ATCC
Plasma = experiment: Prodrug activation in Balb/c immunodeficient nude mouse xenografted with human HT1080 cells assessed as half life for prodrug in plasma after 60 mins by LC-MS analysis; assay type: cell-free; conditions: 1 h
[5] = target: T2, Matrix metalloproteinase-14 (Homo sapiens, UniProt P50281); experiment: Prodrug activation assessed as recombinant human MMP14-mediated compound cleavage at 10 uM after 12 hrs by LC-MS analysis
U-87 MG [6] = experiment: Cytotoxicity against human U87MG cells treated with MJ02 assessed as reduction in cell survival after 96 hrs in presence of MMP inhibitor GM6001 by MTT assay; assay type: functional, cell-based, U-87MG ATCC
[7] = target: T3, Matrix metalloproteinase-9 (Homo sapiens, UniProt P14780); experiment: Prodrug activation assessed as recombinant human MMP9-mediated compound cleavage at 10 uM after 12 hrs by LC-MS analysis
T3 sequence (P14780 whole entry): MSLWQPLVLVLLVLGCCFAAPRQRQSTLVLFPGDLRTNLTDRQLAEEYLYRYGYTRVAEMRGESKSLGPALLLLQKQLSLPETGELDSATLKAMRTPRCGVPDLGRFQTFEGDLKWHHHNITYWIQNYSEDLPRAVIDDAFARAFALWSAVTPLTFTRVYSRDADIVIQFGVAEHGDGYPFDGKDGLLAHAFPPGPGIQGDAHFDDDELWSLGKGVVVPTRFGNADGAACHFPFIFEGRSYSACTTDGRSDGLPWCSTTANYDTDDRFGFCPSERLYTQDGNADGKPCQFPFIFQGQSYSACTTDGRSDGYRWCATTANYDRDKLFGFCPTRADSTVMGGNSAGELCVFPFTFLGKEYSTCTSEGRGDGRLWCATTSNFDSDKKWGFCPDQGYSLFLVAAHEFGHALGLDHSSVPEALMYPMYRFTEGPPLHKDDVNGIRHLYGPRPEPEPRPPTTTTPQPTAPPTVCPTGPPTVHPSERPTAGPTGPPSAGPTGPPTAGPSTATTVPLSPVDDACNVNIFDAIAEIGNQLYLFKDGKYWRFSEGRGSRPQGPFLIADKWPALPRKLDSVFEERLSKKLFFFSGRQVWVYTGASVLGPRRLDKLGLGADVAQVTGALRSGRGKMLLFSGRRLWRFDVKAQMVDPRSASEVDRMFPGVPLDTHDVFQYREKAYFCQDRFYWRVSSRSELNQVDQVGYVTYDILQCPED

[8] = target: T1, 72 kDa type IV collagenase; experiment: Prodrug activation assessed as recombinant human MMP2-mediated Cbz-Gly-Pro-Ile-Gln-Glu-Hof formation at 10 uM after 12 hrs by LC-MS analysis
[9] = Retention time of compound by LC-MS analysis
U-87 MG [10] = experiment: Cytotoxicity against human U87MG cells treated with MJ02 assessed as reduction in cell survival after 96 hrs by MTT assay; assay type: functional, cell-based, U-87MG ATCC
[11] = target: T1, 72 kDa type IV collagenase; experiment: Prodrug activation assessed as recombinant human MMP2-mediated Cbz-Glu-Pro-Leu-Gly formation at 10 uM after 12 hrs by LC-MS analysis
[12] = target: T3, Matrix metalloproteinase-9; experiment: Prodrug activation assessed as recombinant human MMP9-mediated Ser(O-benzyl)-Tyr-Leu-doxorubicin formation at 10 uM after 12 hrs by LC-MS analysis
[13] = target: T3, Matrix metalloproteinase-9; experiment: Prodrug activation assessed as recombinant human MMP9-mediated Cbz-Glu-Pro-Leu-Gly formation at 10 uM after 12 hrs by LC-MS analysis
[14] = target: T1, 72 kDa type IV collagenase; experiment: Prodrug activation assessed as recombinant human MMP2-mediated Ser(O-benzyl)-Tyr-Leu-doxorubicin formation at 10 uM after 12 hrs by LC-MS analysis
[15] = target: T2, Matrix metalloproteinase-14; experiment: Prodrug activation assessed as recombinant human MMP14-mediated Cbz-Glu-Pro-Leu-Gly metabolite at 10 uM after 12 hrs by LC-MS analysis; assay type: ADME
[16] = target: T2, Matrix metalloproteinase-14; experiment: Prodrug activation assessed as recombinant human MMP14-mediated Ser(O-benzyl)-Tyr-Leu-doxorubicin formation at 10 uM after 12 hrs by LC-MS analysis

CC[C@H](C)[C@H](NC(=O)[C@@H]1CCCN1C(=O)CNC(=O)OCc1ccccc1)C(=O)N[C@@H](CCC(N)=O)C(=O)N[C@@H](CCC(=O)O)C(=O)NC(CCc1ccccc1)C(=O)N[C@@H](CC(C)C)C(=O)N[C@@H]1C[C@@H](O[C@@H]2C[C@@](O)(C(=O)CO)Cc3c(O)c4c(c(O)c32)C(=O)c2c(OC)cccc2C4=O)O[C@H](C)[C@H]1O (stereo partly drawn) (Cbz-GPIQE[ξhPhe]L-X1)
t1/2 (Kidney): >= 38.1 min | Retention time [1]: 3.58 min | t1/2 (Liver): >= 17 min | Drug metabolism [2]: Metabolite_Detected | t1/2 [3]: >= 8.8 min | IC50 (U-87 MG [4]): 5000 nM | t1/2 (Plasma): > 1.5 h | Drug metabolism [5]: Metabolite_Notdetected | IC50 (U-87 MG [6]): > 100000 nM | Drug metabolism [7]: Metabolite_Notdetected | Drug metabolism [8]: Metabolite_Detected

COc1cccc2c1C(=O)c1c(O)c3c(c(O)c1C2=O)C[C@@](O)(C(=O)CO)C[C@@H]3O[C@H]1C[C@H](N)[C@H](O)[C@H](C)O1 [DOXORUBICIN]
IC50 (U-87 MG [4]): 300 nM

COc1cccc2c1C(=O)c1c(O)c3c(c(O)c1C2=O)C[C@@](O)(C(=O)CO)C[C@@H]3O[C@H]1C[C@H](NC(=O)[C@@H](N)CC(C)C)[C@H](O)[C@H](C)O1 [LEURUBICIN]
Retention time [9]: 2.08 min | IC50 (U-87 MG [10]): 600 nM

CC(C)C[C@H](NC(=O)[C@@H]1CCCN1C(=O)[C@H](CCC(=O)O)NC(=O)OCc1ccccc1)C(=O)NCC(=O)O (Cbz-EPLG-OH)
Retention time [9]: 2.87 min

COc1cccc2c1C(=O)c1c(O)c3c(c(O)c1C2=O)C[C@@](O)(C(=O)CO)C[C@@H]3O[C@H]1C[C@H](NC(=O)[C@H](CC(C)C)NC(=O)[C@H](Cc2ccc(O)cc2)NC(=O)[C@@H](N)COCc2ccccc2)[C@@H](O)[C@H](C)O1
Retention time [9]: 3.23 min

CNc1ccccc1C(=O)NCCCC[C@H](NC(=O)[C@H](C)NC(=O)[C@H](Cc1c[nH]cn1)NC(=O)[C@H](N)CSC)C(N)=O
Retention time [9]: 2.47 min

COc1cccc2c1C(=O)c1c(O)c3c(c(O)c1C2=O)C[C@@](O)(C(=O)CO)C[C@@H]3O[C@H]1C[C@H](NC(=O)[C@H](CC(C)C)NC(=O)[C@H](Cc2ccc(O)cc2)NC(=O)[C@H](COCc2ccccc2)NC(=O)CNC(=O)[C@H](CC(C)C)NC(=O)[C@@H]2CCCN2C(=O)[C@H](CCC(=O)O)NC(=O)OCc2ccccc2)[C@@H](O)[C@H](C)O1 (Cbz-EPLGS(Bn)YL-X2)
Drug metabolism [11]: Metabolite_Detected | Drug metabolism [12]: Metabolite_Detected | Drug metabolism [13]: Metabolite_Detected | Retention time [9]: 3.63 min | Drug metabolism [14]: Metabolite_Detected | Drug metabolism [15]: Metabolite_Detected | Drug metabolism [16]: Metabolite_Detected

O=C(O)CNC(=O)C(CC1CCCCC1)NC(=O)[C@@H]1CCCN1c1ccc([N+](=O)[O-])cc1[N+](=O)[O-] (stereo partly drawn) (Dnp-Pro-[ξCha]-Gly-OH)
Retention time [9]: 2.3 min

CC[C@H](C)[C@H](NC(=O)[C@@H]1CCCN1C(=O)CNC(=O)OCc1ccccc1)C(=O)N[C@@H](CCC(N)=O)C(=O)N[C@@H](CCC(=O)O)C(=O)NC(CCc1ccccc1)C(=O)O (stereo partly specified) (Cbz-GPIQE[ξhPhe]-OH)
Retention time [9]: 2.83 min

Reference: ChEMBL document CHEMBL4014318, “Rationalized Computer-Aided Design of Matrix-Metalloprotease-Selective Prodrugs” (J Med Chem, 2017)
